Laboratory results as given in the supplement of paper PMC13380429.

Tests used:
Settings in all cases: 72 h
[1] = tested on: U2OS; experiment: relative viability EC50 (midpoint between 100% and the lowest measured viability); higher = less toxic
[2] = tested on: Vero E6; experiment: as above
[3] = tested on: Caco-2; experiment: as above
[4] = tested on: Calu-3; experiment: as above
[5] = tested on: HepG2; experiment: as above
[6] = tested on: U2OS; experiment: cell viability relative to DMSO; higher = less toxic
[7] = tested on: Vero E6; experiment: as above
[8] = tested on: Caco-2; experiment: as above
[9] = tested on: Calu-3; experiment: as above
[10] = tested on: HepG2; experiment: as above
[11] = tested on: U2OS; experiment: drug sensitivity score (DSS) for viability; higher = more toxic; extreme values may be limits of the assay
[12] = tested on: Vero E6; experiment: as above
[13] = tested on: Caco-2; experiment: as above
[14] = tested on: Calu-3; experiment: as above
[15] = tested on: HepG2; experiment: as above

| Structure (SMILES) | relative viability EC50 [1] | relative viability EC50 [2] | relative viability EC50 [3] | relative viability EC50 [4] | relative viability EC50 [5] | cell viability ([6]; 1 nM) | cell viability ([6]; 10 nM) | cell viability ([6]; 100 nM) | cell viability ([6]; 1000 nM) | cell viability ([6]; 10000 nM) | cell viability ([7]; 1 nM) | cell viability ([7]; 10 nM) | cell viability ([7]; 100 nM) | cell viability ([7]; 1000 nM) | cell viability ([7]; 10000 nM) | cell viability ([8]; 1 nM) | cell viability ([8]; 10 nM) | cell viability ([8]; 100 nM) | cell viability ([8]; 1000 nM) | cell viability ([8]; 10000 nM) | cell viability ([9]; 1 nM) | cell viability ([9]; 10 nM) | cell viability ([9]; 100 nM) | cell viability ([9]; 1000 nM) | cell viability ([9]; 10000 nM) | cell viability ([10]; 1 nM) | cell viability ([10]; 10 nM) | cell viability ([10]; 100 nM) | cell viability ([10]; 1000 nM) | cell viability ([10]; 10000 nM) | drug sensitivity score [11] | drug sensitivity score [12] | drug sensitivity score [13] | drug sensitivity score [14] | drug sensitivity score [15] |
| --- | --- | --- | --- | --- | --- | --- | --- | --- | --- | --- | --- | --- | --- | --- | --- | --- | --- | --- | --- | --- | --- | --- | --- | --- | --- | --- | --- | --- | --- | --- | --- | --- | --- | --- | --- |
| CC(=O)OCC(=O)[C@@]12N=C(C)O[C@@H]1C[C@H]1[C@@H]3CCC4=CC(=O)C=C[C@]4(C)[C@H]3[C@@H](O)C[C@@]12C [Deflazacort (Calcort)] | > 10 µM | > 10 µM | > 10 µM | > 10 µM | > 10 µM | 99.7% | 95.6% | 99.7% | 94.4% | 97.7% | 99.1% | 99% | 102% | 102% | 102% | 97.8% | 93.3% | 92.8% | 101% | 97.9% | 102% | 92.9% | 97.2% | 80.9% | 93.1% | 109% | 103% | 110% | 102% | 95.9% | 0 | 0 | 0 | 0.4 | 0 |
| CC(C)=CCC/C(C)=C/CC/C(C)=C/CC[C@]1(C)CCc2cc(O)cc(C)c2O1 [delta-tocotrienol] | > 10 µM | > 10 µM | > 10 µM | > 10 µM | > 10 µM | 97.5% | 99.8% | 98.2% | 102% | 97.9% | 107% | 93.1% | 104% | 96.9% | 108% | 99.3% | 99.1% | 81.7% | 97.1% | 105% | 94.6% | 102% | 93.2% | 101% | 113% | 90.7% | 85.3% | 98.6% | 91% | 97.1% | 0 | 0 | 0 | 0 | 0 |
| C#Cc1cccc2c1c(C(=O)c1ccc(Cn3c(C)nc4cnccc43)c(F)c1)cn2C(=O)N(C)C [ABT-491] | > 10 µM | > 10 µM | > 10 µM | > 10 µM | > 10 µM | 99.7% | 98.3% | 96.6% | 98.5% | 94.7% | 103% | 97.1% | 97.1% | 98.4% | 95.5% | 101% | 86.1% | 91.1% | 91.3% | 93.3% | 97.2% | 102% | 100% | 106% | 106% | 102% | 110% | 95.6% | 100% | 91.4% | 0 | 0 | 0 | 0 | 0 |
| CCCCOc1ccc(C(=O)CCN2CCCCC2)cc1 [dyclonine] | > 10 µM | > 10 µM | > 10 µM | > 10 µM | > 10 µM | 99.9% | 103% | 94.3% | 100% | 95.5% | 94.7% | 102% | 99% | 98.6% | 97.3% | 102% | 108% | 101% | 85.7% | 94% | 96% | 109% | 99.2% | 109% | 102% | 96.6% | 93.3% | 106% | 98% | 94.7% | 0 | 0 | 1.1 | 0 | 0 |
| C[C@@H](O)[C@H]1C(=O)N2C(C(=O)O)=C(S[C@@H]3CN[C@H](CNS(N)(=O)=O)C3)[C@H](C)[C@H]12 [doripenem] | > 10 µM | > 10 µM | > 10 µM | > 10 µM | > 10 µM | 95.6% | 94.6% | 95.1% | 95.2% | 94.7% | 104% | 104% | 97.3% | 99.4% | 97.3% | 103% | 98% | 95.2% | 92.3% | 107% | 93.1% | 85.6% | 84% | 95.1% | 94.4% | 104% | 106% | 91% | 99.9% | 96.8% | 0 | 0 | 0 | 0 | 0 |
| Cc1ccc(F)cc1C(=O)Nc1ccc(C(=O)N2Cc3cccn3Cc3ccccc32)c(Cl)c1 [lixivaptan] | > 10 µM | > 10 µM | > 10 µM | > 10 µM | > 10 µM | 101% | 96.5% | 101% | 96.3% | 97.7% | 106% | 103% | 102% | 102% | 95.8% | 96.6% | 88.4% | 91.4% | 88.3% | 95% | 102% | 98.6% | 96.2% | 105% | 108% | 114% | 108% | 99.5% | 103% | 84.2% | 0 | 0 | 0 | 0 | 0.2 |
| O=S(=O)(c1ccccc1)N(CC(F)(F)F)c1ccc(C(O)(C(F)(F)F)C(F)(F)F)cc1 | > 10 µM | > 10 µM | > 10 µM | > 10 µM | > 10 µM | 104% | 101% | 102% | 97.7% | 96.5% | 103% | 102% | 98.1% | 101% | 98.8% | 96% | 89.8% | 93.9% | 87.5% | 87.5% | 107% | 96.5% | 99.2% | 98.2% | 99.7% | 97.1% | 107% | 94.3% | 87.4% | 78.3% | 0 | 0 | 0.5 | 0 | 1.8 |
